The results in this text go back to patent US9624223B2, “Morphinan derivative” (THE KITASATO INSTITUTE, priority 2013, dated 2017).

Marks after values point to notes of the source that are not given here. A value given as a limit tells only on which side of the number the result lay.

One series addresses T1, human opioid receptor δ (Homo sapiens, UniProt P41143).
T1 construct: host or cells: CHO cells
Description: Opioid receptor function test (Lance Ultra cAMP Kit), δ receptor. As to conditions: for EC50: agonistic activity, human δ receptor-expressing CHO cells, cAMP, forskolin; for Emax: maximum reaction relative to SNC 80 taken as 100%. Type of series: cell-based. As for the experimental part: (§1) Functional activities of the compounds of the present invention on the μ, δ, and κ opioid receptors were examined.
(§2) The test was performed by using Lance Ultra cAMP Kit (Perkin-Elmer) according the prescribed method. In the evaluation of the agonistic activity, each human opioid receptor (δ, μ, and κ, accession numbers and catalog numbers are mentioned below)-expressing CHO cells and 10 μM of a test compound were reacted for 30 minutes in the presence of forskolin in an assay buffer (1×HBSS, […], pH 7.4, […] (isobutylmethylxanthine), 7.5% BSA). The cAMP detection reagent included in the kit was then added, and 1 hour afterward, time decomposition fluorometry was performed by using EnVision plate reader (Perkin-Elmer). […] The Emax value was calculated as a ratio of the maximum reaction of the test compound based on the maximum reaction of each control drug, which was taken as 100%.
(§3) • (+)-4-[(αR)-α-(2S,5R)-4-Allyl-2,5-dimethyl-1-piperazinyl]-3-methoxybenzyl]-N,N-diethylbenzamide DAMGO: • [D-Ala^2,N-MePhe^4,Gly-ol]enkephalin U-69593: • (+)-(5α,7α,8β)-N-Methyl-N-[7-(1-pyrrolidinyl)-1-oxaspiro[4.5]dec-8-yl]benzeneacetamide Accession Numbers and Catalog Numbers δ: Catalog No. CT4607, accession No. NM_000911.2 μ: Catalog No. CT4605, accession No. NM_000914 κ: Catalog No. CT4606, accession No. NM_000912 (ChanTest Corporation)

The target of a further series is T2, human opioid receptor μ (Homo sapiens, UniProt P35372).
T2 construct: host or cells: CHO cells
T2 sequence (P35372 whole entry): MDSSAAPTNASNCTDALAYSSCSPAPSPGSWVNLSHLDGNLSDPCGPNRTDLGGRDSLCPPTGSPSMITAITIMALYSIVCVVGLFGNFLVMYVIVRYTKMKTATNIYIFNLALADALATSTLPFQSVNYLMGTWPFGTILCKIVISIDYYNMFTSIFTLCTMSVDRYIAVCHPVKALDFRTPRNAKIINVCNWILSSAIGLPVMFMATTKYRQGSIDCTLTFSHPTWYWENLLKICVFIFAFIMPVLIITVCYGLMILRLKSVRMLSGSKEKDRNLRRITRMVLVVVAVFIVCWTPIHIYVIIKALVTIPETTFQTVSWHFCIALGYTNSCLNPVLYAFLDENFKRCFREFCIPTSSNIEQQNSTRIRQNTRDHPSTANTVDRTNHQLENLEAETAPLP
Description: Opioid receptor function test (Lance Ultra cAMP Kit), μ receptor. Type of series: cell-based. The following applies: for μ Receptor reaction ratio at the maximum concentration (reference value): 10 μM, maximum reaction not attained, DAMGO = 100%; for EC50: agonistic activity, human μ receptor-expressing CHO cells, cAMP, forskolin; for Emax: maximum reaction relative to DAMGO taken as 100%. As for the experimental part:
as §1, §2, §3

A further series deals with T3, human opioid receptor κ (Homo sapiens, UniProt P41145).
T3 construct: host or cells: CHO cells
T3 sequence (P41145 whole entry): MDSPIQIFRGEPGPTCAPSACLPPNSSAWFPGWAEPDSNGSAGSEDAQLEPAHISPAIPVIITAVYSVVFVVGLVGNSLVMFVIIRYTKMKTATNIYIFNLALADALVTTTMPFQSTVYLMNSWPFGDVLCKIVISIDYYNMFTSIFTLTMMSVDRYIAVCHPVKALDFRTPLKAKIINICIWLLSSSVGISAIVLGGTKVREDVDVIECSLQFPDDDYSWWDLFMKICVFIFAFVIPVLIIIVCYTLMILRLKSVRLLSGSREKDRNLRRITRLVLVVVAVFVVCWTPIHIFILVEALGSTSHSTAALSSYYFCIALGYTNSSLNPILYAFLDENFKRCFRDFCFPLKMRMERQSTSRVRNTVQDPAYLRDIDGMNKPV
Description: Opioid receptor function test (Lance Ultra cAMP Kit), κ receptor. Type of series: cell-based. The following applies: for κ Receptor reaction ratio at the maximum concentration (reference value): 10 μM, maximum reaction not attained, U-69593 = 100%; for EC50: agonistic activity, human κ receptor-expressing CHO cells, cAMP, forskolin; for Emax: maximum reaction relative to U-69593 taken as 100%. The method, then:
as §1, §2, §3

For a further series, the target named is T4, hERG channel (Homo sapiens, UniProt Q12809).
T4 construct: expressed in transfected cells; host or cells: CHO-K1 cells
T4 sequence (Q12809 whole entry): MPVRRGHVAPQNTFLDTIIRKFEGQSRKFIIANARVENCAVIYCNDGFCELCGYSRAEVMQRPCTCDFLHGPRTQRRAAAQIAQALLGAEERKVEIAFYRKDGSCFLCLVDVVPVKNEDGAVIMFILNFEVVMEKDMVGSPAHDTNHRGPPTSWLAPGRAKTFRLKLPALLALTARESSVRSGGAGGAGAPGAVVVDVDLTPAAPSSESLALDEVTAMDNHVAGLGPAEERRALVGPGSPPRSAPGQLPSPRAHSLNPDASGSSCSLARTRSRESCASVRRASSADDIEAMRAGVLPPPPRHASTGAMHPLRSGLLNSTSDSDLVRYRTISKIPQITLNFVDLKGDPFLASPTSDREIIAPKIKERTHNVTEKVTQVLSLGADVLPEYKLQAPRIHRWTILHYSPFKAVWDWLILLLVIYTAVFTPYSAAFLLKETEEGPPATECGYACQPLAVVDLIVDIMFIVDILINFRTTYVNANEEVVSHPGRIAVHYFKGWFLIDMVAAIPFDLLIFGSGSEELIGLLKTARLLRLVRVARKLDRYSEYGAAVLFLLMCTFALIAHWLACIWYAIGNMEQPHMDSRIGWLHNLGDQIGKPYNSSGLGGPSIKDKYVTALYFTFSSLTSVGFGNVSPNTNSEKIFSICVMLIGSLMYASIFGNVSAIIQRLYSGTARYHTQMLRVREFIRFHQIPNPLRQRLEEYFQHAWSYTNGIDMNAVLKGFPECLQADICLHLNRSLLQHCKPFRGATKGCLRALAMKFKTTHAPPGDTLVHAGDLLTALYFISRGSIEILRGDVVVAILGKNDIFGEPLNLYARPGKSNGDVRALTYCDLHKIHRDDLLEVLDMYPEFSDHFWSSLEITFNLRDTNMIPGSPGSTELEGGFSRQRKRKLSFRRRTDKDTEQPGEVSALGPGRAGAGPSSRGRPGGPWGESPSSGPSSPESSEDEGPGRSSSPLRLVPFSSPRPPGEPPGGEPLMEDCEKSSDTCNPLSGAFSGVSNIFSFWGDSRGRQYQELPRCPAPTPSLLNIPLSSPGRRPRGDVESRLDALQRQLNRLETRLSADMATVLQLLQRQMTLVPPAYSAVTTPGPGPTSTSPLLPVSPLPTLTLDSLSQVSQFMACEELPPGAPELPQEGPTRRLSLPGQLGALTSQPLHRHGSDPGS
Description: hERG potassium channel inhibition test (Qpatch16 patch clamp, CHO-K1 cells). Type of series: cell-based. As to conditions: 10 μM; tail current inhibition, hERG-expressing CHO-K1 cells. The method, then:
The test was performed with Qpatch16 (Sophion Biosciences Inc.) full automatic patch clamp system using hERG channel-stably expressing CHO-K1 cells. The hERG channel inhibitory action of each test compound was obtained on the basis of inhibitory action against a tail current induced by a test pulse at […] for 1 second applied after retention at +20 mV for 2 seconds. The test compound was dissolved in an extracellular fluid (137 mM NaCl, 4 mM KCl, 1.8 mM CaCl2, 1 mM MgCl2, 10 mM D(+)-glucose, 10 mM HEPES, pH 7.4), and the solution was […] at room temperature for 5 minutes. The inhibition ratio was obtained from the ratio of the tail current value observed after the compound was applied based on the tail current value observed before the compound was applied, which was taken as 100%. Cells were used for the test, where the cells show a peak tail current value not smaller than 100 pA, tail current run-down smaller than 30% of the initial current value, leak current smaller than 50% of the peak value of the tail current, and series resistance value lower than 20 MΩ.
(In general: Block of hERG is tested as a sign of cardiac risk.)

For a further series, the target named is T5, δ opioid receptor (Mus musculus, UniProt P32300).
T5 construct: In the assays for the μ and δ receptors, the mouse cerebrum membrane fraction was used; from tissue; host or cells: mouse cerebrum membrane fraction
T5 sequence (P32300 whole entry): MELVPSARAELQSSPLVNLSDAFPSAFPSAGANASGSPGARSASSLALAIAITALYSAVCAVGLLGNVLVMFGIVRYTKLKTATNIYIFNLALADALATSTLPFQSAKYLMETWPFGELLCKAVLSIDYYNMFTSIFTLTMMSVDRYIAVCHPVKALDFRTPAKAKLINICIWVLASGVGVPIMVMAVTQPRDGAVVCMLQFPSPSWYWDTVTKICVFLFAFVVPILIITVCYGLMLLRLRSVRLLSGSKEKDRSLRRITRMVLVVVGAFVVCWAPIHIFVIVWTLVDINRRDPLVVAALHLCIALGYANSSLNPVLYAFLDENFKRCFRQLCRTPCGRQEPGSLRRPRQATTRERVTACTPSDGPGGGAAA
Description: Opioid receptor binding test, [3H]DPDPE, mouse cerebrum membrane fraction. As to conditions: read-out: Binding affinity (Ki, nM) δ. The method, then:
(§4) Binding affinities of the compounds of the present invention to the μ, δ, and κ opioid receptors were examined.
(§5) According to a previous report (J. Biol. Chem., 2001, 276:15409-15414), mouse cerebrum and guinea pig cerebellum membrane fractions were prepared. As radioactive ligands for the opioid receptors, [^3H]DAMGO (μ opioid receptor), [^3H]DPDPE (δ opioid receptor), and [3H]U69,593 (κ opioid receptor) were used. In the assays for the μ and δ receptors, the mouse cerebrum membrane fraction was used, and in the assay for the κ receptor, guinea pig cerebellum membrane fraction was used. For the nonspecific binding, DAMGO, DPDPE, and U69,593 were used at 1 μM for μ, δ and κ receptors, respectively. Each receptor membrane fraction, radioactive ligand, and a sample at various concentrations were reacted for a predetermined time, and after the B/F separation, amount of radioactivity remained on the filter was measured with a liquid scintillation counter, and binding inhibition ratio of the test compound (IC50 value) was calculated. Ki value was calculated by using the resulting IC50 value in accordance with the following equation. Ki=IC50/(1+L/Kd) L: Concentration of radioactive ligand used Kd: Kd value of radioactive ligand
(§6) Further, selectivity for the δ receptor among the opioid receptors was determined by calculating ratio of the Ki value for μ or κ, and the Ki value for δ (μ/δ or κ/δ).
(§7) • [D-Ala^2,N-MePhe^4, Gly-Ol]enkephalin DPDPE: • [D-Pen^2,D-Pen^5]enkephalin

The target of the next series is T6, μ opioid receptor (Mus musculus, UniProt P42866).
T6 construct: In the assays for the μ and δ receptors, the mouse cerebrum membrane fraction was used; from tissue; host or cells: mouse cerebrum membrane fraction
T6 sequence (P42866 whole entry): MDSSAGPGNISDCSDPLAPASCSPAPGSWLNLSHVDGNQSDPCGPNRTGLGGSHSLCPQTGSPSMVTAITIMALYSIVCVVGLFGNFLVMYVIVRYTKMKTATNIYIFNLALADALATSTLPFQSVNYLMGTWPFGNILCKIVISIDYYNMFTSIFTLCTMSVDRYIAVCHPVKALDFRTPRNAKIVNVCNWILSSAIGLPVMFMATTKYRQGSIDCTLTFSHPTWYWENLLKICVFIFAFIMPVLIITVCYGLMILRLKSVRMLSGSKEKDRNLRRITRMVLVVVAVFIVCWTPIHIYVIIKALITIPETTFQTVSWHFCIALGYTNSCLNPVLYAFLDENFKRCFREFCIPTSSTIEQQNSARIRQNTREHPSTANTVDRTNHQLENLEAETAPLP
Description: Opioid receptor binding test, [3H]DAMGO, mouse cerebrum membrane fraction. As to conditions: ratio of Ki for μ to Ki for δ. The method, then: as §4, §5, §6, §7

For another series, the target named is T7, κ opioid receptor (Cavia porcellus, UniProt P41144).
T7 construct: in the assay for the κ receptor, guinea pig cerebellum membrane fraction was used; from tissue; host or cells: guinea pig cerebellum membrane fraction
T7 sequence (P41144 whole entry): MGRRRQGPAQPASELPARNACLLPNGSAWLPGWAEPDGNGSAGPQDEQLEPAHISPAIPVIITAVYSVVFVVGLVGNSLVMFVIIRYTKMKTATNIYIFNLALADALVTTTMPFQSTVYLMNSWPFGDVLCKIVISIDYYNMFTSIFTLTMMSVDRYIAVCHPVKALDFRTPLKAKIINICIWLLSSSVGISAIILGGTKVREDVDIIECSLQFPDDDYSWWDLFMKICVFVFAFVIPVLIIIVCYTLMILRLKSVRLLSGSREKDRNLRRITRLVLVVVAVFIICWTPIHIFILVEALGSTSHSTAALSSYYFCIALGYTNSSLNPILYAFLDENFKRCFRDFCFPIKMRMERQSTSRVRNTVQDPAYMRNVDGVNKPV
Description: Opioid receptor binding test, [3H]U69,593, guinea pig cerebellum membrane fraction. As to conditions: ratio of Ki for κ to Ki for δ. As for the experimental part:
as §4, §5, §6

T1 sequence (P41143 whole entry): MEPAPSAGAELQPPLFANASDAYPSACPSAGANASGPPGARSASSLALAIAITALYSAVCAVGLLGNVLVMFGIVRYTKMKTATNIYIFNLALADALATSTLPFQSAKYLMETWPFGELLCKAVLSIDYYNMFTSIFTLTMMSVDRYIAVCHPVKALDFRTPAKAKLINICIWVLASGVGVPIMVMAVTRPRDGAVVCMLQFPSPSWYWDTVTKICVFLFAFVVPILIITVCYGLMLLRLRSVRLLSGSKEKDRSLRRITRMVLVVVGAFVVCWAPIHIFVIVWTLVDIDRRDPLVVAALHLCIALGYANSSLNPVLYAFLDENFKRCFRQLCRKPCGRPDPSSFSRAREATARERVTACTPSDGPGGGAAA

In general, EC50 refers to the concentration needed to bring the measured effect to its halfway point. A higher EC50 goes with a less potent agent. In general, Emax refers to the maximal effect, on the per cent scale that the assay sets. At human opioid receptor δ, `N[C@@H](CO)CN1CC[C@@]23c4cc(O)ccc4C[C@@H]1[C@]21CC[C@@H]2[C@H]3[C@@H](CN2C(=O)c2ccccc2)C1` [Compound 64, [(1S,3aR,5aS,6R,11bR,11cS)-14-[(2R)-2-amino-3-hydroxypropyl]-10-hydroxy-1,2,3a,4,5,6,7,11c-octahydro-3H-6,11b-(epiminoethano)-1,5a-methanonaphtho[1,2-e]indol-3-yl](phenyl)methanone] came in with an EC50 of less than 1 nM and an Emax of 105%. Besides, the “μ Receptor reaction ratio at the maximum concentration (reference value)” value on human opioid receptor μ is “(60)^a %”. At human opioid receptor κ, the “κ Receptor reaction ratio at the maximum concentration (reference value)” value (from here on “κ Receptor reaction ratio”) is reported as “(9.0)^a %”. The “HERG channel inhibitory action” value on hERG channel is on record as less than 50%.
As a reminder, the Ki is the dissociation constant of the complex between target and ligand, obtained from inhibition or displacement. Regarding `O=C(c1ccccc1)N1C[C@H]2CC34CCC1C2C31CCN(C[C@@H]2CCCCN2)C4Cc2ccc(O)cc21` (stereo partly shown) [Compound 47], the Ki at δ opioid receptor is less than 10 nM. Further, at μ opioid receptor, the “δ-receptor selectivity (Ki value ratio) μ/δ” value was greater than 10. Also, the “δ-receptor selectivity (Ki value ratio) κ/δ” value at κ opioid receptor was greater than 10.
For the compound `NCC(O)CN1CC[C@@]23c4cc(O)ccc4C[C@@H]1[C@]21CC[C@@H]2[C@H]3[C@@H](CN2C(=O)c2ccccc2)C1` (single isomer, unassigned) [Compound 62a], at human opioid receptor δ, the EC50 is less than 1 nM and the Emax was 108%. Further, at human opioid receptor μ, the EC50 was greater than 100 nM and the Emax amounted to 106%. On human opioid receptor κ, the “κ Receptor reaction ratio” value is listed as “(1.7)^a %”.
As to `CN(C)CCN1CCC23c4cc(O)ccc4CC1C21CCC2C3[C@@H](CN2C(=O)c2ccccc2)C1` (stereo partly shown) [Compound 40], the EC50 at human opioid receptor δ is less than 1 nM; on human opioid receptor μ, greater than 10 nM; on human opioid receptor κ it was greater than 10 nM. Moreover, the values for the Emax at human opioid receptor δ, on human opioid receptor μ and on human opioid receptor κ were 104%, 92% and 22%, respectively.
Turning to `O=C(c1ccccc1)N1C[C@H]2CC34CCC1C2C31CCN(CC2CNC2)C4Cc2ccc(O)cc21` (stereo partly shown) [Compound 49], the EC50 is less than 1 nM at human opioid receptor δ, greater than 100 nM at human opioid receptor μ and greater than 100 nM at human opioid receptor κ. The results for the Emax at human opioid receptor δ, on human opioid receptor μ and on human opioid receptor κ were 108%, 105% and 28%, respectively.
At human opioid receptor δ, `NCCCN1CCC23c4cc(O)ccc4CC1C21CCC2C3[C@@H](CN2C(=O)c2ccccc2)C1` (stereo partly shown) [Compound 41] gave an EC50 of less than 1 nM and an Emax of 103%. At human opioid receptor μ, the EC50 is greater than 100 nM and the Emax was found to be 97%. For the same compound, the “κ Receptor reaction ratio” value at human opioid receptor κ was “(15)^a %”.
At human opioid receptor δ, `C[C@H](N)CN1CCC23c4cc(O)ccc4CC1C21CCC2C3[C@@H](CN2C(=O)c2ccccc2)C1` (stereo partly shown) [Compound 43] displayed a concentration giving a half-maximal response (EC50) of less than 10 nM and an Emax of 109%. In addition, the “μ Receptor reaction ratio at the maximum concentration (reference value)” value at human opioid receptor μ is “(8.2)^a %”. Also, the “κ Receptor reaction ratio” value on human opioid receptor κ was “(7.2)^a %”. Further, the Ki on δ opioid receptor is less than 1 nM. Further, the “δ-receptor selectivity (Ki value ratio) μ/δ” value on μ opioid receptor was greater than 10. For the same compound, the “δ-receptor selectivity (Ki value ratio) κ/δ” value on κ opioid receptor is given as greater than 10.
On to `Cc1cc(C)nc(N2C[C@H]3C[C@@]45CC[C@@H]2[C@@H]3[C@@]42CCN(CCN(C)C)[C@@H]5Cc3ccc(O)cc32)n1` [Compound 74, (1S,3aR,5aS,6R,11bR,11cS)-14-[2-(dimethylamino)ethyl]-3-(4,6-dimethylpyrimidin-2-yl)-2,3,3a,4,5,6,7,11c-octahydro-1H-6,11b-(epiminoethano)-1,5a-methanonaphtho[1,2-e]indol-10-ol], for which the values for the EC50 on human opioid receptor δ, on human opioid receptor μ and at human opioid receptor κ were less than 1 nM, greater than 10 nM and greater than 100 nM, respectively. Besides, the maximal effect (Emax) at human opioid receptor δ stood at 101%; on human opioid receptor μ, 121%; at human opioid receptor κ, 46%.
`NCCCN1CCC23c4cc(O)ccc4CC1C21CCC2C3[C@@H](CN2C(=O)c2cccc3ccccc23)C1` (stereo partly shown) [Compound 55]: at human opioid receptor δ, the EC50 was less than 1 nM and the Emax is 102%. In addition, at human opioid receptor μ, the EC50 is greater than 10 nM and the Emax was found to be 82%. Moreover, on human opioid receptor κ, the “κ Receptor reaction ratio” value is “(4.8)^a %”.
In the case of `O=C(c1ccccc1)N1C[C@H]2C[C@@]34CC[C@@H]1[C@@H]2[C@@]31CCN(C[C@@H]2CCCN2)[C@@H]4Cc2ccc(O)cc21` [Compound 19, [(1S,3aR,5aS,6R,11bR,11cS)-10-hydroxy-14-[[(2S)-pyrrolidin-2-yl]methyl]-1,2,3a,4,5,6,7,11c-octahydro-3H-6,11b-(epiminoethano)-1,5a-methanonaphtho[1,2-e]indol-3-yl](phenyl)methanone], the results for the 50% effective concentration (EC50) at human opioid receptor δ and on human opioid receptor μ were less than 10 nM and greater than 100 nM, respectively. The figures for the Emax at human opioid receptor δ and on human opioid receptor μ were 106% and 27%, respectively. On human opioid receptor κ, the “κ Receptor reaction ratio” value is on record as “(2.6)^a %”. Further, the “HERG channel inhibitory action” value at hERG channel is on record as less than 50%.
`Cc1cc(C)nc(N2C[C@H]3C[C@@]45CC[C@@H]2[C@@H]3[C@@]42CCN(CCCN)[C@@H]5Cc3ccc(O)cc32)n1` [Compound 76, (1S,3aR,5aS,6R,11bR,11cS)-14-(3-aminopropyl)-3-(4,6-dimethylpyrimidin-2-yl)-2,3,3a,4,5,6,7,11c-octahydro-1H-6,11b-(epiminoethano)-1,5a-methanonaphtho[1,2-e]indol-10-ol]: at hERG channel, the “HERG channel inhibitory action” value is on record as less than 50%.
Take `CN1CCC[C@H]1CN1CCC23c4cc(O)ccc4CC1C21CCC2C3[C@@H](CN2C(=O)c2ccccc2)C1` (stereo partly drawn) [Compound 20, [(1S,3aR,5aS,6R,11bR,11cS)-10-hydroxy-14-[[(2S)-11-methylpyrrolidin-2-yl]methyl]-1,2,3a,4,5,6,7,11c-octahydro-3H-6,11b-(epiminoethano)-1,5a-methanonaphtho[1,2-e]indol-3-yl](phenyl)methanone]: the EC50 at human opioid receptor δ was less than 1 nM; at human opioid receptor μ it was greater than 100 nM; at human opioid receptor κ, greater than 10 nM. In addition, the results for the Emax on human opioid receptor δ, at human opioid receptor μ and on human opioid receptor κ were 103%, 54% and 17%, respectively.
